Key:
HepG2 [1] = experiment: Induction of apoptosis in human HepG2 cells at 50 uM incubated for 24 hrs by Annexin V-FITC and propidium iodide staining based microcapillary flow cytometry; type: functional
HepG2 [2] = experiment: Induction of apoptosis in human HepG2 cells incubated for 24 hrs by Annexin V-FITC and propidium iodide staining based microcapillary flow cytometry; type: functional, cell-based; conditions: HepG2, 24 h
THP-1 [3] = experiment: Induction of apoptosis in human THP1 cells incubated for 24 hrs by Annexin V-FITC and propidium iodide staining based microcapillary flow cytometry; type: functional, cell-based; conditions: THP-1, 24 h
THP-1 [4] = experiment: Induction of apoptosis in human THP1 cells at 50 uM incubated for 24 hrs by Annexin V-FITC and propidium iodide staining based microcapillary flow cytometry; type: functional
THP-1 [5] = experiment: Induction of cell cycle arrest in human THP1 cells assessed accumulation at subG1 phase at 25 uM incubated for 24 hrs by propidium iodide staining based microcapillary flow cytometry (reference value: 2 +/- 1%); type: functional
THP-1 [6] = experiment: Induction of cell cycle arrest in human THP1 cells assessed accumulation at subG1 phase at 25 uM incubated for 48 hrs by propidium iodide staining based microcapillary flow cytometry (reference value: 2 +/- 1%); type: functional

| EC50 (HepG2 [2]) | EC50 (THP-1 [3]) | SMILES | Activity (HepG2 [1]) | Activity (THP-1 [4]) | Activity (THP-1 [5]) | Activity (THP-1 [6]) |
| --- | --- | --- | --- | --- | --- | --- |
| 16 µM | 24 µM | Cl.Nc1nc(-c2cccc(NC(=O)c3cc4cc(Cl)ccc4[nH]3)c2)c[nH]1 | 93% | 87% | 26% | 40% |
| 13 µM | 23 µM | Cl.Nc1nc(-c2cccc(NC(=O)c3cc4cc(F)ccc4[nH]3)c2)c[nH]1 | 98% | 87% | 36% | 41% |

Reference: ChEMBL document CHEMBL3621195, “Analogues of the marine alkaloids oroidin, clathrodin, and hymenidin induce apoptosis in human HepG2 and THP-1 cancer cells” (Medchemcomm, 2015)
